Measurements published in ChEMBL document CHEMBL1201862, “PubChem BioAssay data set” (2004).
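Briefly, cells in 96-well plates were exposed to five compound concentrations for 48 h, and endpoints were estimated by linear interpolation. Here, GI50 denotes the concentration required for 50% inhibition of growth.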 Activity calls are given as the source filed them. No stated cut-off is given here; in the data, active = GI50 up to about 1.1 µM and inactive = higher.

Tests used:
Experiment in all cases: NCI anticancer screen, dose series, 48 h
ACHN = tested on: ACHN
COLO 205 = tested on: COLO 205
HL-60 = tested on: HL-60
HOP-92 = tested on: HOP-92
IGROV-1 = tested on: IGROV-1
Malme-3M = tested on: Malme-3M
NCI-H226 = tested on: NCI-H226
OVCAR-5 = tested on: OVCAR-5
OVCAR-8 = tested on: OVCAR-8
SF-295 = tested on: SF-295
SK-MEL-28 = tested on: SK-MEL-28
SW-620 = tested on: SW-620
U-251 = tested on: U-251
M14 = tested on: M14
SNB-19 = tested on: SNB-19
SR = tested on: SR

Measured: GI50

COc1ccccc1/C=C/C(=O)c1sc(-c2cccnc2)nc1C
inactive: ACHN > 100 µM | COLO 205 > 100 µM | HL-60 > 100 µM | HOP-92 > 100 µM | IGROV-1 > 100 µM | Malme-3M > 100 µM | NCI-H226 > 100 µM | OVCAR-5 > 100 µM | OVCAR-8 > 100 µM | SF-295 46.5 µM | SK-MEL-28 > 100 µM | SW-620 > 100 µM | U-251 > 100 µM

CCCCCCN(N)C(=O)CC#N
inactive: ACHN 95.5 µM | COLO 205 96.2 µM | HOP-92 53 µM | IGROV-1 > 100 µM | M14 > 100 µM | Malme-3M > 100 µM | NCI-H226 > 100 µM | OVCAR-5 52.2 µM | OVCAR-8 > 100 µM | SK-MEL-28 > 100 µM | SNB-19 > 10 µM | SW-620 > 100 µM | U-251 74.5 µM

Cc1cc(O)c2c3c1C(=O)Oc1c(CO)c(O)c(C(=O)O)c(c1O3)C=NN=Cc1c3c(c(CO)c(O)c1C(=O)O)OC(=O)c1c(C)cc(O)c(c1O3)C=NN=C2
inactive: ACHN > 100 µM | COLO 205 > 100 µM | HOP-92 > 100 µM | IGROV-1 > 100 µM | M14 > 100 µM | Malme-3M > 100 µM | NCI-H226 > 100 µM | OVCAR-5 > 100 µM | OVCAR-8 > 100 µM | SF-295 > 100 µM | SK-MEL-28 > 100 µM | SNB-19 > 100 µM | SW-620 > 100 µM | U-251 > 100 µM

N#Cc1c(-c2ccc(Cl)c(Cl)c2)c(-c2ccc(Cl)c(Cl)c2)nn(CC(=O)O)c1=O
inactive: ACHN 61.5 µM | COLO 205 71.4 µM | HL-60 43.1 µM | HOP-92 > 100 µM | IGROV-1 > 100 µM | M14 99.8 µM | Malme-3M > 100 µM | NCI-H226 24 µM | OVCAR-5 > 100 µM | OVCAR-8 57 µM | SF-295 48.6 µM | SK-MEL-28 75.2 µM | SW-620 53.6 µM | U-251 32.1 µM

N#C/C(=C\c1c(O)cc(O)cc1O)C(N)=O
inactive: ACHN > 100 µM | COLO 205 > 100 µM | HL-60 > 100 µM | HOP-92 > 100 µM | M14 > 100 µM | Malme-3M > 100 µM | NCI-H226 > 100 µM | OVCAR-5 > 100 µM | OVCAR-8 > 100 µM | SF-295 > 100 µM | SK-MEL-28 > 100 µM | SNB-19 > 100 µM | SW-620 > 100 µM | U-251 > 100 µM

O/N=C1/C(=C/c2ccc(Cl)c(Cl)c2)CCCC1C(NO)c1ccc(Cl)c(Cl)c1 (stereo not drawn)
inactive: ACHN 18.4 µM | COLO 205 18.3 µM | HL-60 17.6 µM | IGROV-1 19.9 µM | M14 17.4 µM | Malme-3M 20 µM | OVCAR-8 18.7 µM | SK-MEL-28 17.9 µM | SNB-19 17.6 µM | SW-620 17.9 µM | U-251 17.9 µM

O=C1CCC2(CC1)SCCCS2
inactive: ACHN 40 µM | COLO 205 > 100 µM | HL-60 > 100 µM | HOP-92 > 100 µM | IGROV-1 > 100 µM | M14 > 100 µM | Malme-3M > 100 µM | NCI-H226 > 100 µM | OVCAR-5 > 100 µM | OVCAR-8 > 100 µM | SF-295 > 100 µM | SK-MEL-28 > 100 µM | SNB-19 > 100 µM | SW-620 > 100 µM | U-251 > 100 µM

C/C(=N/N)c1ccc2[nH]c3c(C)cc([N+](=O)[O-])c(C)c3c2c1
inactive: ACHN 9.38 µM | COLO 205 11.5 µM | HL-60 > 100 µM | M14 15 µM | Malme-3M 4.33 µM | NCI-H226 14.3 µM | OVCAR-5 > 10 µM | OVCAR-8 5.3 µM | SF-295 17.1 µM | SK-MEL-28 6.07 µM | SNB-19 14.4 µM | SR 5.83 µM | SW-620 7.53 µM

COC(=O)CC(NC(=O)OCc1ccccc1)C(C(=O)OCc1ccccc1)C1(C)OCCO1 (stereo not drawn)
inactive: ACHN 34.9 µM | COLO 205 18.6 µM | HL-60 21.1 µM | IGROV-1 40 µM | M14 40.7 µM | Malme-3M 33.3 µM | NCI-H226 22.5 µM | OVCAR-8 25.2 µM | SF-295 32.4 µM | SK-MEL-28 66.5 µM | SNB-19 50 µM | SR 19.1 µM | SW-620 47.6 µM | U-251 33.1 µM

CC1=C(C(=O)Nc2cc(=O)n(C)c(=O)n2C)C(c2cccc([N+](=O)[O-])c2)C(C(=O)Nc2cc(=O)n(C)c(=O)n2C)=C(C)N1
inactive: ACHN 89.7 µM | COLO 205 > 100 µM | HL-60 > 100 µM | HOP-92 58.7 µM | IGROV-1 > 100 µM | M14 > 100 µM | Malme-3M > 100 µM | NCI-H226 > 100 µM | OVCAR-5 > 100 µM | OVCAR-8 > 100 µM | SF-295 > 100 µM | SK-MEL-28 > 100 µM | SNB-19 > 100 µM | SW-620 > 100 µM | U-251 > 100 µM

COc1ccc([N+]2=NC(c3ccc([N+](=O)[O-])cc3)=NN(c3ccccc3)C2)cc1.[O-][Cl+3]([O-])([O-])[O-]
inactive: ACHN 86.5 µM | COLO 205 10 µM | HL-60 22.3 µM | IGROV-1 33.2 µM | Malme-3M > 100 µM | NCI-H226 > 100 µM | OVCAR-5 > 100 µM | OVCAR-8 > 100 µM | SF-295 74.8 µM | SK-MEL-28 > 100 µM | SNB-19 > 100 µM | SR 44.2 µM | SW-620 > 100 µM | U-251 36.1 µM

Cc1cc(Cl)cc2c1NC(=O)C2(O)CC(=O)c1ccc(Br)cc1 (stereo not drawn)
inactive: ACHN 39.4 µM | COLO 205 > 100 µM | HL-60 16.9 µM | HOP-92 94.4 µM | IGROV-1 66.8 µM | M14 52 µM | Malme-3M > 100 µM | NCI-H226 > 100 µM | OVCAR-5 > 100 µM | OVCAR-8 38.2 µM | SF-295 46.9 µM | SK-MEL-28 35.6 µM | SNB-19 71 µM | SW-620 > 90.6 µM | U-251 79.4 µM

C/C(CC(=O)Nc1ccccc1C)=N/NS(=O)(=O)c1ccc(C)cc1
inactive: ACHN > 100 µM | COLO 205 > 100 µM | HL-60 > 100 µM | HOP-92 > 100 µM | IGROV-1 > 100 µM | M14 > 100 µM | Malme-3M > 100 µM | NCI-H226 > 100 µM | OVCAR-5 > 100 µM | OVCAR-8 > 100 µM | SF-295 > 100 µM | SK-MEL-28 > 100 µM | SW-620 > 100 µM | U-251 > 100 µM

COc1cc2c(cc1OC(=O)CC(C)O)C1C(OC2=O)C(OC(C)=O)C=C2CCN(C)[C@H]21 (stereo partly drawn)
inactive: ACHN 18 µM | COLO 205 81.3 µM | HOP-92 17.3 µM | IGROV-1 21.5 µM | M14 68.5 µM | NCI-H226 27.5 µM | OVCAR-5 > 100 µM | OVCAR-8 39.9 µM | SF-295 20.7 µM | SK-MEL-28 29 µM | SNB-19 20.7 µM | SR 74.5 µM | SW-620 > 100 µM | U-251 24.2 µM
